Data on seven compounds can be found in patent US20210318318A1, “Kinase Activity In Tumors” (Institute For Cancer Research d/b/a The Research Institute …, priority 2018, published 2021).

For assay [1], the system named is HGSOC cells. The experiment in a line: Cell viability of HGSOC cell line panel (Cell Titer Glo). As to conditions: increasing concentrations; Cell Titer Glo. It is filed as cell-based, human. The method, then:
Cells were treated with increasing concentrations of PF-03758309 and cell viability assessed by Cell Titer Glo according to manufacturer's instructions. Data represent the mean of six replicates.
Cell viability was assessed by Cell Titer Glo according to manufacturing. Data represent the mean of six replicates.
(§1) For short-term growth assays, 3000-5000 cells were plated per well in 96-well plates and allowed to adhere and equilibrate overnight. Drug was added the following morning and after 120 hours of drug treatment, cell viability was assessed using the CellTiter-Glo Luminescent cell viability assay according to manufacturer (Promega). Students t tests were performed for statistical analyses and p values ≤0.05 were considered significant. For colony formation assays, cells were plated in 24-well dishes (3000-5000 cells per well) and incubated overnight before continuous drug treatment for 14 days, with drug and media replaced twice weekly. At the end of treatment, cells were rinsed with PBS and fixed with chilled methanol for 10 minutes at −20° C. Methanol was removed by aspiration, and cells were stained with 0.5% crystal violet in 20% methanol for 20 minutes at room temperature, washed with distilled water, and scanned.
In general terms: ATP-based viability assays read luminescence as a measure of living cells.

Another assay relates to OVSAHO. The experiment in a line: Short-term growth assay (CellTiter-Glo cell viability), kinase inhibitors. The format is cell-based, human. The method, then:
(§2) Cell viability was determined by Cell Titer Glo analysis.
(§3) To explore the therapeutic potential of the HGSOC kinome signature, a detailed molecular analysis of protein levels/activity, growth and survival functions was carried out in a panel of recently validated HGSOC cell lines (Coscia et al., Nat. Commun., 2016, 7, 12645) that harbor commonly encountered HGSOC mutations and genetic rearrangements (see, FIG. 5A).
as §1

The next assay relates to SNU-119. The description is as above. It is filed as cell-based, human. The method, then:
as §2, §3, §1

The next assay has as its system OVCAR4. Described as above. The format is cell-based, human. The method, then: as §2, §3, §1
For a further assay, the system named is Kuramochi. The description is as above. The format is cell-based, human. The method, then: as §2, §3, §1
A further assay has as its system COV362. The description is as above. It is filed as cell-based, human. The method, then:
as §2
COV362 cells were treated with increasing concentrations of A-674563 and cell viability assessed by Cell Titer Glo according to manufacturer's instructions. Data represent the mean of six replicates.
as §3, §1

For the next assay, the target named is MRCKA (Homo sapiens, UniProt Q5VT25). The experiment in a line: MIB/MS kinome profiling of inhibitor-treated OVSAHO cells. As to conditions: 2 μM, 4 hour treatment. The format is cell-based. Also noted: endogenous in cells; host or cells: OVSAHO. The method, then: (§4) OVSAHO cells were treated with inhibitors at a dose of 2 μM for 4 hours and kinase inhibition profiles determined by MIB/MS. Bar graph depicts % of kinase bound to MIBs relative to DMSO control as determined by label free quantitation.
MRCKA, sequence (Q5VT25 whole entry): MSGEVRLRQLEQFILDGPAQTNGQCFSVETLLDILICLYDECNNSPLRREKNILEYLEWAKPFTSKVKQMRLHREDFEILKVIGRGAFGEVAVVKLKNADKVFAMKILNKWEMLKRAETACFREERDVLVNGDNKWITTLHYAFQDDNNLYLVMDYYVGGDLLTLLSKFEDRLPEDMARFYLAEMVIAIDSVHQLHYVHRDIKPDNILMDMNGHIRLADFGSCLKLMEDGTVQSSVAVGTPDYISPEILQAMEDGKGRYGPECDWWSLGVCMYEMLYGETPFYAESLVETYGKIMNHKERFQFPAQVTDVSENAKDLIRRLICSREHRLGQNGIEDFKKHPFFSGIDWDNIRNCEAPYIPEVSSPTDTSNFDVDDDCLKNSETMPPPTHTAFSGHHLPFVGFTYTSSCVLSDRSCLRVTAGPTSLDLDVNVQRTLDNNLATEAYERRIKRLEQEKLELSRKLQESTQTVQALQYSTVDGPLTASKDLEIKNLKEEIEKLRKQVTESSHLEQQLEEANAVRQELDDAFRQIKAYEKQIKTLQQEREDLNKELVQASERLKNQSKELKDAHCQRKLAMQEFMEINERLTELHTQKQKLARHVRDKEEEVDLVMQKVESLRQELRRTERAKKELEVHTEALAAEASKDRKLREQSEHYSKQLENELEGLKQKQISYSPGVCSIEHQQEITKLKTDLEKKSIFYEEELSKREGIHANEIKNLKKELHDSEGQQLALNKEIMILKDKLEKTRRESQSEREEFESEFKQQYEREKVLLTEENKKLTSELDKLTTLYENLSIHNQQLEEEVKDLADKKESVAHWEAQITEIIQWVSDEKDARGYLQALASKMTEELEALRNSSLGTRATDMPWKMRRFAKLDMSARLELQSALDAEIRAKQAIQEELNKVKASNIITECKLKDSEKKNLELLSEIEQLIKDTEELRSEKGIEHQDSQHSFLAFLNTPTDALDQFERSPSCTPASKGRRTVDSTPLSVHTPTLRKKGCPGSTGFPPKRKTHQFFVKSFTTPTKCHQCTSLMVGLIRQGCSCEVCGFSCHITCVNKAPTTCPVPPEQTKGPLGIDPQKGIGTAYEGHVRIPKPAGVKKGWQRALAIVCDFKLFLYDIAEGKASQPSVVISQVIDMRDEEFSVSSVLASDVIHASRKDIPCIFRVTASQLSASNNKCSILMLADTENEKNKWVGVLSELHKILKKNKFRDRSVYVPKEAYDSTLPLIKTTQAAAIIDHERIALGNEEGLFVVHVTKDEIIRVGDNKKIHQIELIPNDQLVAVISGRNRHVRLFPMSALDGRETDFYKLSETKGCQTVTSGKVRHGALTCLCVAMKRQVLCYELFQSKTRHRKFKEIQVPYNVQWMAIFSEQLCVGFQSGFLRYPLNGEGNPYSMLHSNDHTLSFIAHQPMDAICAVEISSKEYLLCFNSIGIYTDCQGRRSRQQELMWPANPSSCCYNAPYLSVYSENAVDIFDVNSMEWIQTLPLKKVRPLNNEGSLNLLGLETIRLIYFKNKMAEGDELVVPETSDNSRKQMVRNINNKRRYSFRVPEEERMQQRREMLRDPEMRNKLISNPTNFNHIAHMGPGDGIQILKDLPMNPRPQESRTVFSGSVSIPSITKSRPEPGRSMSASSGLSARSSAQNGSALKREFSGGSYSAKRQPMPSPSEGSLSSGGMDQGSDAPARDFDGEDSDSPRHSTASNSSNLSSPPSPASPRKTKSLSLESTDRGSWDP
(§5) OVSAHO cells were treated with 2 μM of inhibitor for 4 hours and analyzed by MIB/MS. Scatterplot depicts difference in kinase MIB-binding of drug treated relative to control DMSO as determined by Students T-test.
(§6) MIB-based kinome profiling was performed on several of these molecules in HGSOC cells to determine kinome-wide inhibition profiles.
(§7) Experiments using MIB/MS were performed as previously described (Duncan et al., Cell, 2012, 149, 307-321; and Kurimchak et al., Cell Reports, 2016, 16, 1273-1286). Briefly, cells or tumors were lysed on ice in buffer containing 50 mM HEPES (pH 7.5), 0.5% Triton X-100, 150 mM NaCl, 1 mM EDTA, 1 mM EGTA, 10 mM sodium fluoride, 2.5 mM sodium orthovanadate, 1× protease inhibitor cocktail (Roche), and 1% each of phosphatase inhibitor cocktails 2 and 3 (Sigma). Particulate was removed by centrifugation of lysates at 13,000 rpm for 10 minutes at 4° C. and filtration through 0.2 μm syringe filters. Protein concentrations were determined by BCA analysis (Thermo). To compare kinome signatures within and across such large sample sizes, a super-SILAC method was designed (Neubert et al., Nat. Meth., 2010, 7, 361-362) consisting of a cocktail of cancer cell lines that encompasses the activity of the “cancer kinome” to be used as a control for individual samples. Five cancer cell lines were selected from the NCI-60 panel (UACC257, MOLT4, COL0205, ACHN and PC3) that differed in their origin, gene expression patterns and mutation status. The cancer cell lines were labeled using SILAC and mixed equally providing a diverse SILAC ([^13C6,^15N4] arginine (Arg^10) and […] (Lys^8)) heavy kinome reference standard (HKS) to be used repeatedly in kinome profiling assays. An equal amount of the HKS was added to the non-labeled sample (cell, tumor or normal tissue) providing a quantitative strategy to compare kinome activity/levels across samples, amongst treatments and, importantly, across time. […]
(§8) Proteolytic peptides were resuspended in 0.1% formic acid and separated with a Thermo RSLC Ultimate 3000 on a Thermo Easy-Spray C18 PepMap 75 μm×50 cm C-18 2 μm column with a 240 minute gradient of 4-25% acetonitrile with 0.1% formic acid at 300 nL/min and 50° C. Eluted peptides were analyzed by a Thermo Q Exactive plus mass spectrometer utilizing a top 15 methodology in which the 15 most intense peptide precursor ions were subjected to fragmentation.

The target of a further assay is T1, MRCKB (Homo sapiens, UniProt Q9Y5S2).
T1 construct: endogenous in cells; host or cells: OVSAHO
T1 sequence (Q9Y5S2 whole entry): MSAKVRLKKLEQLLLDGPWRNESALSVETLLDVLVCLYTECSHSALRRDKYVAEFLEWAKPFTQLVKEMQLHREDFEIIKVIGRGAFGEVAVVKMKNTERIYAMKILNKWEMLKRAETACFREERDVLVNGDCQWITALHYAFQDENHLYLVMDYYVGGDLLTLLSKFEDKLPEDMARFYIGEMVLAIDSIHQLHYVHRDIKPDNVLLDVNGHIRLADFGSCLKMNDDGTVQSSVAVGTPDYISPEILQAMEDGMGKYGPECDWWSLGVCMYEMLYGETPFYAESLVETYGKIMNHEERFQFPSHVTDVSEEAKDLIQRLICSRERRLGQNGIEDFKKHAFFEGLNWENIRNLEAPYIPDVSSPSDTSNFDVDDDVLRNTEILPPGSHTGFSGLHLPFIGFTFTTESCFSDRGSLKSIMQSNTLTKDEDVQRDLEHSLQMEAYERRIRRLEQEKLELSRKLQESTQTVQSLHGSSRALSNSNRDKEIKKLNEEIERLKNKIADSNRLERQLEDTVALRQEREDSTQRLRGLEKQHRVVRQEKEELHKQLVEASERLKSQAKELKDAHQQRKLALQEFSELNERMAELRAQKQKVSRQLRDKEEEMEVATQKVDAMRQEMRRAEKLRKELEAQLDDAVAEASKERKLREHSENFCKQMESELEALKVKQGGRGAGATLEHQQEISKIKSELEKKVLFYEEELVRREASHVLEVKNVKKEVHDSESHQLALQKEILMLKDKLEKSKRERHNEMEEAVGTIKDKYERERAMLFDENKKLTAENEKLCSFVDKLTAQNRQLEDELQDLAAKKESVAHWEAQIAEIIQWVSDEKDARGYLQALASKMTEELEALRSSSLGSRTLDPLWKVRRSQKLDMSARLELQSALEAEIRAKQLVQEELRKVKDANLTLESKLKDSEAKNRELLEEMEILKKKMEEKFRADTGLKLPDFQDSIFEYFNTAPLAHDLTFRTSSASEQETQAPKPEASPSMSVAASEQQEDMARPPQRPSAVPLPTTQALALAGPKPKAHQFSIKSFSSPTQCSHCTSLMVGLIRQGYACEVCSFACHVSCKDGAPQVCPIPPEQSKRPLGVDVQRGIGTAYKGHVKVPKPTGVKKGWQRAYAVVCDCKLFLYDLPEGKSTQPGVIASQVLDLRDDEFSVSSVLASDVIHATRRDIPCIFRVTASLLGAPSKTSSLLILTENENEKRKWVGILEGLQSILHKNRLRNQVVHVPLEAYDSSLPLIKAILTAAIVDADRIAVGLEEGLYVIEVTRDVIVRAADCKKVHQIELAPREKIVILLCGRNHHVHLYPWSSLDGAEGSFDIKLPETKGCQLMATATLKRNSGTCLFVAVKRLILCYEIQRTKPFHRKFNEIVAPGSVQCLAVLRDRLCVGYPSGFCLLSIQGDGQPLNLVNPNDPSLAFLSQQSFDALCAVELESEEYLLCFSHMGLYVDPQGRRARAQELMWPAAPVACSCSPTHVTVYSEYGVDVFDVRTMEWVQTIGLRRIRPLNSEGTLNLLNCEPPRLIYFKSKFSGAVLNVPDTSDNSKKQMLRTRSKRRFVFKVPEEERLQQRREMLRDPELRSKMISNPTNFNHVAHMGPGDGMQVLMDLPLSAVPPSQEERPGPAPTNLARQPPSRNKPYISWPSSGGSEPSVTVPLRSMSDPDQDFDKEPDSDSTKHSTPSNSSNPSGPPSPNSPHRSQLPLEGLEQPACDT
The description is as above. The format is cell-based. Conditions: 2 μM, 4 hour treatment. The method, then:
as §4, §5, §6, §7, §8

The test system of a further assay is OVCAR4 cells. The experiment in a line: Drug growth inhibition in cells depleted of dark kinases by siRNA (Cell Titer Glo). The format is cell-based, human. As to conditions: increasing doses of drug. The method, then:
OVCAR4 cells were transfected with control nontargeting or dark kinase siRNAs and treated with escalating doses of appropriate drugs.
(§9) To explore if blocking dark kinases AAK1, STK38 or MRCKA activity in combination with current therapies improves drug efficacy, OVCAR4 cells depleted of AAK1, STK38 or MRCKA were treated with increasing doses of carboplatin, olaparib, JQ1, or a variety of kinase inhibitors in clinical trials for HGSOC.
(§10) siRNA transfections were performed using 25 nM siRNA duplex and the reverse transfection protocol. 3000-5000 cells per well were added to 96 well plates with media containing the siRNA and transfection reagent (Lipofectamine RNAiMax) according to the manufacturer's instructions. In experiments where inhibitors were used, the inhibitor was added at the time of transfection. Cells were allowed to grow for 72-120 hours post-transfection prior to CellTiter Glo (Promega) analysis. Two-to-three independent experiments were performed with each cell line and siRNA. Students t tests were performed for statistical analyses and p values ≤0.05 were considered significant. For western blot studies, the same procedure was performed with volumes and cell numbers proportionally scaled to a 60 mm or 10 cm dish, and cells were collected 24-72 hours post-transfection. siRNA product numbers and manufacturers are listed in Table 5.

For the next assay, the target named is T2, ROCK2 (Homo sapiens, UniProt O75116).
T2 construct: endogenous in cells; host or cells: OVSAHO
T2 sequence (O75116 whole entry): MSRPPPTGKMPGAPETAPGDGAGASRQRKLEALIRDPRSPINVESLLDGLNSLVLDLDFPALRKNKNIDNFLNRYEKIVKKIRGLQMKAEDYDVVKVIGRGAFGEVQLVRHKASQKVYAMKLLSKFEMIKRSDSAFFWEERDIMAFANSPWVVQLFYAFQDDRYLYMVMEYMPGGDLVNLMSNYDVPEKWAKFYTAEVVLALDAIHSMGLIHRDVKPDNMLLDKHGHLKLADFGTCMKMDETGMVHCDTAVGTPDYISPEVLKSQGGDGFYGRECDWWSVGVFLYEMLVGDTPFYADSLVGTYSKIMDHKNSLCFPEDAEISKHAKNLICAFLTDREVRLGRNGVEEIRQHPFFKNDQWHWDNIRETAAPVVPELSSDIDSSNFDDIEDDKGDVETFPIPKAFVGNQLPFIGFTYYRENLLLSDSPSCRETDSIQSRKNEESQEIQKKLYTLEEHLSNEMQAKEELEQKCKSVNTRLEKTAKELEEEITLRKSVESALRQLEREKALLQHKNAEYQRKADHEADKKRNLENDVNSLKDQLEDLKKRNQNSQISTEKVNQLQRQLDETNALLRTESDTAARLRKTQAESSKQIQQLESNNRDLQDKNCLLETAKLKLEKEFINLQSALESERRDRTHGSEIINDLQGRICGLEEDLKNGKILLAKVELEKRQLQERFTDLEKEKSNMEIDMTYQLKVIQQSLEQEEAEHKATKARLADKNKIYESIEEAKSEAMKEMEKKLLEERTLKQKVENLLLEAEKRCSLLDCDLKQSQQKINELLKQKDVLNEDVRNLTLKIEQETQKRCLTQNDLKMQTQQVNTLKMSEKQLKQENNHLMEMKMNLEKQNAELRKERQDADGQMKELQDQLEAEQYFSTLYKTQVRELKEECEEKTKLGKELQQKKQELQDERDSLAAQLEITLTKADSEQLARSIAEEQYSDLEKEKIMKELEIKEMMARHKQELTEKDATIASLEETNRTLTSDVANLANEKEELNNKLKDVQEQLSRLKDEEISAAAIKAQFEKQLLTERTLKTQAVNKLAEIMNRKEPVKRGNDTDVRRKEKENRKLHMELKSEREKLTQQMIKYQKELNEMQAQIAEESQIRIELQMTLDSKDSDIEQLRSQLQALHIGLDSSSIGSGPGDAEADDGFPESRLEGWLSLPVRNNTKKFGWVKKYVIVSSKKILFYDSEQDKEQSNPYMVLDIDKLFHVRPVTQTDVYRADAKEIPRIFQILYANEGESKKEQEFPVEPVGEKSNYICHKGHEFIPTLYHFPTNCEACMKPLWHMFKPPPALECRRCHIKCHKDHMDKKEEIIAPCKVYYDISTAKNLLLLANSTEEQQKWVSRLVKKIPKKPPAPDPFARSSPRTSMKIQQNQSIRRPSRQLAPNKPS
The experiment in a line: MIB/MS kinome profiling of inhibitor-treated OVSAHO cells. It is filed as cell-based. Conditions: 2 μM, 4 hours. The method, then: as §5, §6
Experiments using MIB/MS were performed as previously described (Duncan et al., Cell, 2012, 149, 307-321; and Kurimchak et al., Cell Reports, 2016, 16, 1273-1286). Briefly, cells or tumors were lysed on ice in buffer containing 50 mM HEPES (pH 7.5), 0.5% Triton X-100, 150 mM NaCl, 1 mM EDTA, 1 mM EGTA, 10 mM sodium fluoride, 2.5 mM sodium orthovanadate, 1× protease inhibitor cocktail (Roche), and 1% each of phosphatase inhibitor cocktails 2 and 3 (Sigma). Particulate was removed by centrifugation of lysates at 13,000 rpm for 10 minutes at 4° C. and filtration through 0.2 μm syringe filters. Protein concentrations were determined by BCA analysis (Thermo). To compare kinome signatures within and across such large sample sizes, a super-SILAC method was designed (Neubert et al., Nat. Meth., 2010, 7, 361-362) consisting of a cocktail of cancer cell lines that encompasses the activity of the “cancer kinome” to be used as a control for individual samples. […] An equal amount of the HKS was added to the non-labeled sample (cell, tumor or normal tissue) providing a quantitative strategy to compare kinome activity/levels across samples, amongst treatments and, importantly, across time. […]
as §8

Assay [2] has as its system FAK1, MLC and Paxillin phosphorylation; FAK1 and CHEK1 protein levels. The experiment in a line: Western blot of signaling in inhibitor-treated HGSOC cells. It is filed as cell-based, human. Conditions: HGSOC (COV362) cells, increasing doses 0.5, 1 or 3 μM, 48 hours. The method, then:
COV362 cells were treated with 0.5, 1 or 3 μM of A-674563 or SB-772077 for 48 hours and signaling monitored by western blot.
Samples were harvested in MIB lysis buffer, subjected to SDS-PAGE […] and transferred to PVDF membranes before western blotting with primary antibodies. For pMYPT and pMLC blots, cells were harvested in a buffer containing 1% (w/v) SDS, 50 mM Tris pH 7.5 supplemented with protease and phosphatase inhibitors buffer and were passed through QIAshredder columns (Qiagen, 79654), (Unbekandt et al., Cell Commun. Signal., 2014, 12, 54). For the list of primary antibodies used, see Table 4. Secondary HRP-anti-rabbit and HRP-anti-mouse were obtained from ThermoFisher Scientific. SuperSignal West Pico and Femto Chemiluminescent Substrates (Thermo) were used to visualize blots.

Assay [3] deals with HGSOC cells. The experiment in a line: Drug response in cells depleted of MRCKA by siRNA (Cell Titer Glo, cleaved PARP blots). Conditions: HGSOC cells; increasing doses. It is filed as cell-based, human. The method, then: Cells transfected with control or MRKCA siRNAs were treated with increasing doses of carboplatin. Cell viability was assessed by Cell Titer Glo according to manufacturer's instructions. Data represent the mean of six replicates. GR50 were determined using PRISM.
Cells transfected with control or MRKCA siRNAs were treated with increasing doses of olaparib. Cell viability was assessed by Cell Titer Glo according to manufacturer's instructions. Data represent the mean of six replicates. GR50 were determined using PRISM.
as §9, §10

Each structure is given as a SMILES string.

For the compound `CNC(=O)c1ccccc1Nc1cc(Nc2ccc(N3CCOCC3)cc2OC)ncc1C(F)(F)F` [PND1186], in the assay with HGSOC cells [1], the “cell viability of HGSOC cells” value was “reduced cell viability”. Further, the “Kinase inhibition profile of HGSOC cells (growth inhibition, Cell Titer Glo)” value (shortened to “Kinase inhibition profile of HGSOC cells”) in the assay with OVSAHO (drug 1.2 uM) came out at 0.69; in the assay on SNU-119 (drug 1.2 uM), 0; with OVCAR4 (drug 1.2 uM) it was 0.51; with Kuramochi (drug 1.2 uM), 0.51; in the assay with COV362 (drug 1.2 uM), 0.34.

Regarding `Fc1ccc(Cl)cc1-c1nc(Nc2ccncc2)c2nccnc2n1` [SD-208], the “MIB-binding of MRCKA relative to DMSO” value on MRCKA is on record as “no effect”. Also, the “MIB-binding of MRCKB relative to DMSO” value at MRCKB was “no effect”.

Consider `CN(C)C/C=C/C(=O)Nc1ccc(C(=O)Nc2cccc(Nc3ncc(Cl)c(-c4c[nH]c5ccccc45)n3)c2)cc1` [THZ1], for which the “Kinase inhibition profile of HGSOC cells” value was found to be 0 in the assay with OVSAHO (drug 0.156 uM); 0 in the assay with SNU-119 (drug 0.156 uM); 0 in the assay on OVCAR4 (drug 0.156 uM); 0.07069 in the assay with Kuramochi (drug 0.156 uM); 1.026 in the assay on COV362 (drug 0.156 uM). Moreover, the “growth inhibition by drug combined with knockdown of STK38” value in the assay with OVCAR4 cells is listed as “improved growth inhibition”. Also, the “growth inhibition by drug with MRCKA knockdown relative to non-targeting control siRNA” value in the assay with OVCAR4 cells is reported as “enhanced growth inhibition”.

In the case of `CCn1c(-c2nonc2N)nc2cncc(C(=O)N3CC[C@H](N)C3)c21` [SB-772077-B], the “MIB-binding of ROCK2” value on ROCK2 is “reduction in MIB-binding”. The “FAK1, MLC and Paxillin phosphorylation” value in [2] was “reduced”.

Take `Cc1nc(Nc2[nH]nc3c2CN(C(=O)N[C@H](CN(C)C)c2ccccc2)C3(C)C)c2sccc2n1` [PF03758039]: the “cell viability of HGSOC cells” value in the assay on HGSOC cells [1] is “reduced cell viability to the greatest extent in OVCAR4 and KURMAOCHI cells”. Moreover, the “Kinase inhibition profile of HGSOC cells” value in the assay on OVSAHO (drug 1.2 uM) is 0.659; in the assay with SNU-119 (drug 1.2 uM), 0.3505; in the assay with OVCAR4 (drug 1.2 uM) it was 0.2063; with Kuramochi (drug 1.2 uM) it was 0.4783; in the assay on COV362 (drug 1.2 uM), 0.4916.

Consider `O=C(c1cc(Cc2n[nH]c(=O)c3ccccc23)ccc1F)N1CCN(C(=O)C2CC2)CC1` [olaparib], for which the “growth inhibitory and apoptotic response to drug with MRCKA knockdown” value in the assay with HGSOC cells [3] is “improved the growth inhibitory and apoptotic response”. Further, the “growth inhibition by drug with MRCKA knockdown relative to non-targeting control siRNA” value with OVCAR4 cells is recorded as “enhanced growth inhibition”.

For `CS(=O)(=O)CCNCc1ccc(-c2ccc3ncnc(Nc4ccc(OCc5cccc(F)c5)c(Cl)c4)c3c2)o1` [Lapatinib], the “MIB-binding of MRCKA relative to DMSO” value on MRCKA is reported as “no effect”. Also, the “Kinase inhibition profile of HGSOC cells” value in the assay on OVSAHO (drug 1.2 uM) is on record as 1.053; in the assay with SNU-119 (drug 1.2 uM) it was 0.15; with OVCAR4 (drug 1.2 uM), 0.974; in the assay on Kuramochi (drug 1.2 uM), 0.9704; in the assay on COV362 (drug 1.2 uM) it was 0.9973. The “MIB-binding of MRCKB relative to DMSO” value on MRCKB was “no effect”.
